According to patent publication US20230381774A1, “MICROFLUDIC LAB-ON-CHIP DEVICE, MATRIX, SMALL MOLECULES AND THREE-DIMENSIONAL SPHEROIDS FOR CELL REPROGRAMMING” (The Regents of the University of California, priority 2022, published 2023):

Columns and labels:
[1] = system: promoter regions of Ascl1, Brn2, Myt1l and TUBB3; test: ChIP-qPCR of histone modifications at neuronal gene promoters; type: cell-based, mouse; conditions: BAM-transduced fibroblasts, day 3, relative to DMSO
Method: Halt™ Protease and Phosphatase Inhibitor Cocktail (ThermoFisher Scientific, 78442) was added to Cell Lysis (10 mM Tris-HCl pH 8.0, 85 mM KCl, 0.5% NP-40), Nuclei Lysis (10 mM Tris-HCl pH 7.5, 1% NP-40, 0.5% sodium deoxycholate, 0.1% SDS), and ChIP Dilution (0.01% SDS, 1.1% Triton X-100, 1.2 mM EDTA, 16.7 mM Tris-HCL pH 8.1, 167 mM NaCl) Buffers.
Three days post-Dox addition, 4×10^6 BAM-transduced fibroblasts cultured in the absence and presence of 10 μM blebbistatin and 5 μM PF573228, respectively, for 2 days were fixed using 1% formaldehyde in PBS (Fisher Scientific, BP531) for 10 minutes. 125 mM Glycine was added for 5 minutes to quench excess formaldehyde, followed by 2 washes with cold 1×PBS. Cells were scraped and collected into microcentrifuge tubes and centrifuged at 800 g at 4° C. for 5 minutes. Upon removing the supernatant, cell pellets were snap-frozen in liquid nitrogen and stored at −80° C. The cells were then resuspended and lysed in Cell Lysis Buffer and resuspended in Nuclei Lysis Buffer prior to sonication using a Branson SFX250 Sonifier at 40% amplitude, 0.7 seconds on and 1.3 seconds off, for a total of 8 minutes. […]
50 μL ChIP Elution Buffer was added to the stored internal controls from the post-sonication step. […] ChIP-qPCR data were analyzed by normalizing the DNA concentration to percent input using the relative standard curve method.

[2] = system: histone marks; test: Immunofluorescence of histone marks in non-transduced fibroblasts; type: cell-based, mouse; conditions: global; 10 μM blebbistatin or 5 μM PF573228, 2 hours, vs control
Method: For immunostaining, cells were fixed with 4% paraformaldehyde (Electron Microscopy Sciences), permeabilized with 0.5% Triton-X-100 (Sigma), and blocked with 5% donkey serum (Jackson Immunoresearch) in phosphate buffered saline (PBS). For actin-cytoskeleton staining, samples were incubated with fluorescein isothiocyanate-conjugated phalloidin (Invitrogen) for 1 hour. Primary antibodies were incubated for 1 hour at room temperature or overnight at 4° C., followed by 1-hour incubation with Alexa 488 and/or Alexa 546-labeled secondary antibodies (Molecular Probes). Nuclei were stained with 4,6-diamino-2-phenylindole (DAPI) (Invitrogen).
Quantification of histone intensity per nuclei was performed using an ImageJ macro. DAPI-stained nuclei were segmented using gaussian blur, thresholding, watershed, and analyze particle functions to identify individual nuclei. This mask was applied to the corresponding stained fluorescence channel to quantify the average fluorescence intensity within each nucleus.

In the case of CS(=O)(=O)c1cccc(CNc2nc(Nc3ccc4c(c3)CCC(=O)N4)ncc2C(F)(F)F)c1 [PF573228], the “histone modifications at promoter regions of Ascl1, Brn2, Myt1l and TUBB3” value [1] is reported as “significant increases in AcH3, H3K3me3 and H3K4me1 at the promoter regions”, the “euchromatin marks (AcH3, H3K4me3, H3K4me1)” value [2] is reported as “global increases in AcH3, H3K3me3 and H3K4me1 marks” and the “heterochromatin marks (H3K27me3, H3K9me3)” value [2] is reported as “a concurrent decrease in H3K9me3 and H3K27me3”.
For Cc1ccc2c(c1)C(=O)C1(O)CCN(c3ccccc3)C1=N2 (stereo not drawn) [blebbistatin], the “histone modifications at promoter regions of Ascl1, Brn2, Myt1l and TUBB3” value [1] was “significant increases in AcH3, H3K4me3 and H3K4me1 at all four promoter regions”, the “euchromatin marks (AcH3, H3K4me3, H3K4me1)” value [2] was “an increase in AcH3, H3K4me3, and H3K4me1 marks” and the “heterochromatin marks (H3K27me3, H3K9me3)” value [2] was “decreased”.
